According to article PMC7581722, “Tolerogenic Immunomodulation by PEGylated Antigenic Peptides” (Frontiers in Immunology, 2020):

Key:
OVA-TCR+ CD4+ T cells [1] = experiment: Analysis of bioavailability: vaccination 3 days before transfer of CFSE-labeled OVA-specific CD4+ cells; design: species or system BALB/c mice; settings: mouse, in vivo, iv
Method: To test for the presence of bioactive material in the organism after an extended period of time (bioavailability), recipients were treated with pOVA or equimolar amounts of PEGylated peptides 3 days before transfer of CFSE-labeled OVA-specific CD4^+ cells. Proliferation was assessed 6 days after CD4^+ T cell transfer by dilution of CFSE intensity using flow cytometry.
We next addressed the question whether PEGylation leads to an extended half-life (bioavailability) of the antigenic peptide in the organism and whether size and structure of the PEG molecule matter. For this, we tested the degree of proliferation after vaccination with a single i.v. injection of pOVA or conjugates at 3 days prior to transfer of OVA-specific T cells ( Figure 3A ). Six days after cell transfer, splenocytes were isolated and proliferation of OVA-TCR^+ CD4^+ T cells was analyzed according to CFSE content.
Figure 3 Conjugation of pOVA to the macromolecular carrier PEG extends peptide bioavailability. (A) Set-up for analysis of the bioavailability. (B) OVA-specific CD4^+ CFSE-labeled T cells were transferred into BALB/c mice three days after i.v. peptide vaccination with unconjugated pOVA or equimolar amounts of pOVA-PEG conjugates. After 6 days proliferation was assessed by flow cytometry. Cells from spleen and pLN were gated on OVA-TCR^+ CD4^+ T cells. […]

[2] = test system: Foxp3+ regulatory T cells among OVA-TCR+ CD4+ T cells; experiment: Adoptive transfer: Foxp3 expression of OVA-TCR+ CD4+ splenocytes after vaccination; assay type: in vivo, BALB/c mice
Method: Cell fixation, permeabilization, and intracellular Foxp3 staining were performed using the eFluor450 anti-mouse Foxp3 (eBioscience) staining set according to manufacturer’s instructions.
On day 0, 5 × 10^6 CFSE-labeled CD4^+ cells from DO11.10 were adoptively transferred intravenously (i.v.) into syngeneic BALB/c mice. After 24 hours, mice were treated by a single i.v. injection of PBS (control), unconjugated pOVA or equimolar amounts of PEG-conjugated pOVA as indicated. […] On day 7, splenocytes were isolated, and OVA-TCR^+ CD4^+ T cells were identified by an anti-KJ1.26 antibody, recognizing the OVA-specific TCR on transferred DO11.10 cells.
To assess the immunomodulatory effect of administration of different types of PEGylated pOVA, we analyzed the expression of Foxp3, the master transcription factor of Tregs and the cytokine profile of antigen-specific T cells upon vaccination.
CFSE-labeled CD4^+ cells from DO11.10 mice were transferred into BALB/c mice. After 24 h, mice received either PBS (control), indicated doses of pOVA or equimolar amounts of PEGylated peptides. After 6 days, Foxp3 expression was assessed using flow cytometry. Spleen cells were gated on OVA-TCR^+ CD4^+ T cells. (A) Representative FACS dot plots of Foxp3 expression following tolerization with pOVA or pOVA-PEG conjugates at a dose of 5 µg (based on peptide amount). (B) Dose response curve in vivo. […]

[3] = test system: TNF-producing OVA-TCR+ CD4+ T cells; assay type: in vivo
[4] = test system: Foxp3+ Tregs among OVA-TCR+ CD4+ cells; experiment: Adoptive transfer of Treg-depleted CD4+ cells: de novo induction of Foxp3+ Tregs; assay type: in vivo, BALB/c mice; settings: 5 µg i.v. or equimolar, 6 days; spleen, pLN, mLN, livLN; n = 3-7
Method: To investigate whether Tregs are expanded or induced de novo, purified CFSE-labeled CD4^+ CD25^- CD103^- T cells from DO11.10 mice were adoptively transferred i.v. into BALB/c mice. After 24 h, mice were treated by a single i.v. injection of PBS (control), unconjugated pOVA at a dose of 5 µg per mouse or equimolar amounts of PEGylated pOVA. On day 7, different lymphatic organs were isolated and OVA-specific CD4^+ T cells were identified by an anti-KJ1.26 antibody.
To investigate whether the increase of Treg frequency following pOVA-PEG20 treatment is due to de novo induction or to expansion of pre-existing Tregs, we transferred Treg-depleted OVA-specific CD4^+ T cells prior to vaccination with pOVA or pOVA-PEG20. […] The frequency of Foxp3^+ Tregs reached similar levels following pOVA and pOVA-PEG20 administration in both spleen and pLN, whereas pOVA-PEG20 increased the Treg frequency in mLN (trend) and the livLN (significant) compared to pOVA.
Figure 5 Administration of pOVA-PEG20 leads to de novo induction of Foxp3^+ Tregs. Treg-depleted CD4^+ T cells from DO11.10 mice were transferred into BALB/c mice 24 h prior to treatment with PBS (control), 5 µg of pOVA or equimolar amounts of pOVA-PEG20. Six days post peptide vaccination, spleen, pLN, mLN and livLN were isolated and Foxp3 expression was analyzed using flow cytometry. […]

OVA-TCR+ CD4+ T cells [5] = experiment: Frequency of OVA-TCR+ CD4+ cells among total CD4+ splenocytes (deletion); assay type: in vivo, BALB/c mice; settings: 5 µg i.v. or equimolar, day 6; compared to PBS (PEG20 also to pOVA); n = 5-11
Method: (§1) On day 0, 5 × 10^6 CFSE-labeled CD4^+ cells from DO11.10 were adoptively transferred intravenously (i.v.) into syngeneic BALB/c mice. After 24 hours, mice were treated by a single i.v. injection of PBS (control), unconjugated pOVA or equimolar amounts of PEG-conjugated pOVA as indicated. In some experiments, mice were also treated with unconjugated pOVA + 50 µg of lipopolysaccharide (LPS) or pOVA-PEG + 50 µg of LPS. On day 7, splenocytes were isolated, and OVA-TCR^+ CD4^+ T cells were identified by an anti-KJ1.26 antibody, recognizing the OVA-specific TCR on transferred DO11.10 cells.
Besides Treg expansion/induction and anergy, deletion of antigen-specific T effector cells by activation-induced cell death also dampens the immune response. […] Thus, vaccination with this conjugate is more efficient in triggering activation-induced death compared to native peptide or pOVA-PEG-tetramer vaccination where some death might outbalance induced proliferation.
Figure 8 Administration of pOVA-PEG20 reduces the frequency of OVA-TCR^+ CD4^+ T cells among total CD4^+ splenocytes. OVA-specific CD4^+ cells were transferred into BALB/c mice. After 24 h, mice received i.v. PBS (control), 5 µg of pOVA or equimolar amounts of pOVA-PEG conjugates. After 6 days, the frequency of OVA-TCR^+ CD4^+ cells among total CD4^+ T cells was assessed using flow cytometry. […]

OVA-specific Th1 cells = experiment: Adoptive transfer of in vitro generated antigen-specific Th1 cells; assay type: in vivo; settings: 5 µg i.v. or equimolar, 24 h after Th1 transfer, CFSE, n = 6
Method: CD4^+ T cells were isolated from DO11.10 mice via MACS-sorting as above and co-cultured 1:3 with APCs (CD4^- CD90^-) (final concentration: 2 x 10^6 cells/ml). Cells were incubated with 1 µg/ml of pOVA, IFN-γ (20 ng/ml) (R&D Systems, McKinley, USA), IL12 (5 ng/ml) (R&D), and anti-IL4-antibody (11B11, produced in house) (5 µg/ml). After 6 days, cells were harvested, and IFN-γ expression was assessed via flow cytometry.
5 × 10^6 purified polarized CFSE-labeled Th1 cells from DO11.10 mice were adoptively transferred i.v. into BALB/c mice. After 24 h, mice were treated by a single i.v. injection of PBS (control), unconjugated pOVA at a dose of 5 µg per mouse or equimolar amounts of PEGylated pOVA. On day 5, splenocytes were isolated, and OVA-specific Th1 cells were identified by an anti-KJ1.26 antibody.
To analyze these questions, in vitro generated OVA-specific Th1 effector cells ( Supplementary Figure 5 ) were transferred into BALB/c mice prior to peptide vaccination. Proliferation and expression of IFN-γ and Foxp3 were assessed on day 5.
Figure 9 pOVA-PEG20 vaccination in presence of pre-existing T effector cells. […] After four days, splenocytes were re-isolated and proliferation, IFN-γ and TNF production as well as Foxp3 expression was assessed using flow cytometry. […] (E, F) Absolute number of antigen-specific IFNγ or Foxp3^+ cells expressed as % of total CD4^+. […]

OVA-TCR+ CD4+ cells = experiment: Adoptive transfer with additional LPS (inflammatory conditions); assay type: in vivo, BALB/c mice; settings: 5 µg i.v. or equimolar + 50 µg LPS, 6 days
Method: as §1
To investigate the impact of inflammatory conditions, we analyzed the effect of lipopolysaccharide (LPS) application on the response of transferred unmanipulated OVA-TCR^+ CD4^+ cells.
24 h after adoptive transfer of OVA-specific CD4^+ T cells, recipients received i.v. PBS (control), 5 µg of pOVA or equimolar amounts of pOVA-PEG conjugates with or without additional LPS. After 6 days, splenocytes were isolated and Foxp3 expression as well as TNF production was assessed by flow cytometry. (A) % TNF^+ cells gated on OVA-specific CD4^+ cells, mean ± SD of data from three independent experiments. (B) % KJ1.26^+ (OVA-specific) splenocytes among total CD4^+ population; mean ± SD of pooled data from three independent experiments. […]

[6] = test system: Th1-driven DTH footpad swelling; experiment: Delayed-type hypersensitivity (DTH) model, footpad swelling; assay type: in vivo, BALB/c mice; settings: 5 µg i.v. or equimolar; Th1 transfer day 7; footpad challenge pOVA/IFA; 8 days; n = 15
Method: pOVA-specific CD4^+ cells were adoptively transferred into BALB/c mice, which were treated i.v. with PBS (control), 5 μg of pOVA or equimolar amounts of pOVA-PEG20 24 h later (tolerization). To induce the effector phase, in vitro generated pOVA-specific Th1 cells were transferred into the recipients on day 7. After 24 h, pOVA in IFA or PBS/IFA were injected into the left or right hind footpad, respectively. Footpad swelling was monitored for 8 consecutive days and expressed as Δ footpad thickness.
To investigate whether pOVA-PEG20 is able to prevent the development of an inflammatory reaction in vivo, we used a DTH model based on the transfer of pre-formed Th1 cells, intra-footpad challenge with pOVA and measurement of footpad swelling for 8 days. […] As discussed below, a clearer superiority of PEGylated peptide over native peptide in tolerance induction was found in a more physiological EAE-model studied in parallel ([35]).
OVA-specific CD4^+ cells were adoptively transferred into BALB/c mice, which were treated i.v. with PBS (control), 5 μg of pOVA or equimolar amounts of pOVA-PEG20 24 h later. On day 7, in vitro generated OVA-specific Th1 cells were transferred into the recipients. […] The difference in footpad thickness after challenge was monitored for eight consecutive days. […]

Sequence: ISQAVHAAHAEINEAGR [pOVA]
- T cell proliferation when vaccinated 3 days prior to T cell transfer (bioavailability) (OVA-TCR+ CD4+ T cells [1]): Little T cell proliferation
- Foxp3+ among OVA-TCR+ CD4+ splenocytes, representative FACS dot plot (Fig. 4A gate number) ([2]; 5 µg i.v. (based on peptide amount), 6 days after treatment, single representative plot): 24.7%
- Frequency of splenic OVA-specific Foxp3+ regulatory T cells (in words) ([2]; 5 µg i.v. or equimolar, pOVA, PEG40, tetramer compared to PBS, PEG20 compared to pOVA): significant increase
- Mean ratio % TNF+/% Foxp3+ cells (effector cell/Treg ratio) ([3]; 5 µg i.v. or equimolar, 6 days, spleen, gated on OVA-TCR+ CD4+ cells, n = 5-8): 2.23
- IL-10 staining of OVA-specific cells after restimulation, representative plot gate number (Suppl. Fig. 3) ([3]; 5 µg in vivo (based on peptide amount), day 7, lower pair of plots): 0.58
- De novo induction of Foxp3+ Tregs from Treg-depleted CD4+ cells [4]: able to induce Foxp3^+ Tregs in all organs analyzed
- Frequency of OVA-specific (OVA-TCR+ CD4+) cells among host CD4+ splenocytes (OVA-TCR+ CD4+ T cells [5]): not reducing
- Proliferative response of transferred Th1 cells (OVA-specific Th1 cells): moderate proliferative response
- Increase in Foxp3+ cells upon vaccination in presence of LPS (OVA-TCR+ CD4+ cells): completely suppressed
- Tolerance in Th1-driven DTH model (Δ footpad thickness) [6]: partial tolerance
